Test results from patent publication US20250230193A1, “CYCLIC COMPOUND HAVING SELECTIVE KRAS INHIBITORY EFFECT ON HRAS AND NRAS” (CHUGAI SEIYAKU KABUSHIKI KAISHA, priority 2022, published 2025).
*1 amine or outer side, *2 acyl side, *3 side chain or, on linkers, in order; H or OH if unused. Where a SMILES comes first, the peptide text is derived from it. Bridges are numbered along the chain shown (N, C = ends). [ ]: non-standard residue; d: D form. The star is where a group is joined. hPhe(3,5-F2-4-CF3) = N[C@@H](CCc1cc(F)c(C(F)(F)F)c(F)c1)C(=O)O; NPrPhe(4-CF3) = CCCN[C@@H](Cc1ccc(C(F)(F)F)cc1)C(=O)O; NMeAbu(4,4,4-F3) = CN[C@@H](CC(F)(F)F)C(=O)O; X16 = O=C([C@@H](N[*:1])C1CC(F)(F)C1)[*:2]; NMeGly(cPent) = CN[C@H](C(=O)O)C1CCCC1; Ac4c(3,3-F2) = NC1(C(=O)O)CC(F)(F)C1; X9 = C[C@@](N[*:1])(C(=O)[*:2])C1CC1; Nva(3-Et) = CCC(CC)[C@H](N)C(=O)O; NMeD = CN[C@@H](CC(=O)O)C(=O)O; Ac4c(3-oxa) = NC1(C(=O)O)COC1; NMeL = CN[C@@H](CC(C)C)C(=O)O; αMeS = C[C@](N)(CO)C(=O)O; Morpholide = C1CN(*)CCO1; Ac5c = NC1(C(=O)O)CCCC1; Aze = O=C(O)[C@@H]1CCN1; Sar = CNCC(=O)O; tBu = CC(C)(C)*; Allyl = C=CC*

Key:
[1] = target: GDP-bound HRAS wild-type protein (Homo sapiens, UniProt P01112); test: Binding to HRAS by surface plasmon resonance (SPR), Single Cycle Kinetics; conditions: KD ratio HRAS/KRAS, SPR
Sequence of GDP-bound HRAS wild-type protein (P01112 whole entry): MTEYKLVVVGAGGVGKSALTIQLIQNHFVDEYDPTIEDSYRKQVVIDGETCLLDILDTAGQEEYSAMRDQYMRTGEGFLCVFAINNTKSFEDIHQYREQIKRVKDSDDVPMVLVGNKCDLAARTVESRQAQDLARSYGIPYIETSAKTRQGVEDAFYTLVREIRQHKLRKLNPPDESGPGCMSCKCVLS

[2] = target: GDP-bound NRAS wild-type protein (Homo sapiens, UniProt P01111); test: Binding to NRAS by surface plasmon resonance (SPR), Single Cycle Kinetics; conditions: KD ratio NRAS/KRAS, SPR
Sequence of GDP-bound NRAS wild-type protein (P01111 whole entry): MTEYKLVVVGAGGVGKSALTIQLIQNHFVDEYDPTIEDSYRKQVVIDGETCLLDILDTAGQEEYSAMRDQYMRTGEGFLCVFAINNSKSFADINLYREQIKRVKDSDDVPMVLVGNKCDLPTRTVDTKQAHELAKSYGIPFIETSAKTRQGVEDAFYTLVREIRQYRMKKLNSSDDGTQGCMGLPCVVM

| Structure (SMILES) | HRAS/KRAS (ratio of KD value with respect to GDP-bound HRAS wild-type protein to KD value with respect to KRAS) [1] | NRAS/KRAS (ratio of KD value with respect to GDP-bound NRAS wild-type protein to KD value with respect to KRAS) [2] |
| --- | --- | --- |
| C=CCOC[C@]1(C)NC(=O)[C@@H]2CCCN2C(=O)[C@H](CCc2cc(F)c(C(F)(F)F)c(F)c2)NC(=O)CN(C)C(=O)[C@H](Cc2ccc(C(F)(F)F)cc2)N(CCC)C(=O)CN(C)C(=O)CN(C)C(=O)[C@H]([C@@H](C)CC)NC(=O)[C@H](CC(C)C)N(C)C(=O)C[C@@H](C(=O)N2CCOCC2)N(C)C(=O)[C@H](C2CCCC2)N(C)C1=O [PP0763] ([NMeL]I[Sar][Sar][NPrPhe(4-CF3)][Sar][hPhe(3,5-F2-4-CF3)]P[αMeS](Allyl)[NMeGly(cPent)][NMeD]-Morpholide; lactam N-11) | B (a compound having 3 or more and less than 10 is denoted as B) | B (a compound having 3 or more and less than 10 is denoted as B) |
| CCCN1C(=O)CN(C)C(=O)CN(C)C(=O)[C@H]([C@@H](C)CC)NC(=O)[C@H](CC(C)C)N(C)C(=O)C[C@@H](C(=O)N2CCOCC2)N(C)C(=O)[C@H](C2CCCC2)N(C)C(=O)[C@](C)(COC(C)(C)C)NC(=O)[C@@H]2CCCN2C(=O)[C@H](CCc2cc(F)c(C(F)(F)F)c(F)c2)NC(=O)CN(C)C(=O)[C@@H]1Cc1ccc(C(F)(F)F)cc1 [PP0764] ([NMeL]I[Sar][Sar][NPrPhe(4-CF3)][Sar][hPhe(3,5-F2-4-CF3)]P[αMeS](tBu)[NMeGly(cPent)][NMeD]-Morpholide; lactam N-11) | B (a compound having 3 or more and less than 10 is denoted as B) | B (a compound having 3 or more and less than 10 is denoted as B) |
| CCCN1C(=O)CN(C)C(=O)CN(C)C(=O)[C@H]([C@@H](C)CC)NC(=O)[C@H](CC(C)C)N(C)C(=O)C[C@@H](C(=O)N2CCOCC2)N(C)C(=O)[C@H](C2CCCC2)N(C)C(=O)C2(COC2)NC(=O)[C@@H]2CCCN2C(=O)[C@H](CCc2cc(F)c(C(F)(F)F)c(F)c2)NC(=O)CN(C)C(=O)[C@@H]1Cc1ccc(C(F)(F)F)cc1 [PP0765] ([NMeL]I[Sar][Sar][NPrPhe(4-CF3)][Sar][hPhe(3,5-F2-4-CF3)]P[Ac4c(3-oxa)][NMeGly(cPent)][NMeD]-Morpholide; lactam N-11) | C (A compound having a KD ratio of 0.1 or more and less than 3 is denoted as C) | B (a compound having 3 or more and less than 10 is denoted as B) |
| CCCN1C(=O)CN(C)C(=O)CN(C)C(=O)[C@H]([C@@H](C)CC)NC(=O)[C@H](CC(C)C)N(C)C(=O)C[C@@H](C(=O)N2CCOCC2)N(C)C(=O)[C@H](C2CCCC2)N(C)C(=O)C2(CC(F)(F)C2)NC(=O)[C@@H]2CCCN2C(=O)[C@H](CCc2cc(F)c(C(F)(F)F)c(F)c2)NC(=O)CN(C)C(=O)[C@@H]1Cc1ccc(C(F)(F)F)cc1 [PP0766] ([NMeL]I[Sar][Sar][NPrPhe(4-CF3)][Sar][hPhe(3,5-F2-4-CF3)]P[Ac4c(3,3-F2)][NMeGly(cPent)][NMeD]-Morpholide; lactam N-11) | B (a compound having 3 or more and less than 10 is denoted as B) | B (a compound having 3 or more and less than 10 is denoted as B) |
| CCCN1C(=O)CN(C)C(=O)CN(C)C(=O)[C@H]([C@@H](C)CC)NC(=O)[C@H](CC(C)C)N(C)C(=O)C[C@@H](C(=O)N2CCOCC2)N(C)C(=O)[C@H](CC(F)(F)F)N(C)C(=O)C2(CCCC2)NC(=O)[C@@H]2CCCN2C(=O)[C@H](CCc2cc(F)c(C(F)(F)F)c(F)c2)NC(=O)CN(C)C(=O)[C@@H]1Cc1ccc(C(F)(F)F)cc1 [PP0767] ([NMeL]I[Sar][Sar][NPrPhe(4-CF3)][Sar][hPhe(3,5-F2-4-CF3)]P[Ac5c][NMeAbu(4,4,4-F3)][NMeD]-Morpholide; lactam N-11) | C (A compound having a KD ratio of 0.1 or more and less than 3 is denoted as C) | B (a compound having 3 or more and less than 10 is denoted as B) |
| CCCN1C(=O)CN(C)C(=O)CN(C)C(=O)[C@H](C(CC)CC)NC(=O)[C@H](CC(C)C)N(C)C(=O)C[C@@H](C(=O)N2CCOCC2)N(C)C(=O)[C@H](C2CCCC2)N(C)C(=O)C2(CCCC2)NC(=O)[C@@H]2CCCN2C(=O)[C@H](CCc2cc(F)c(C(F)(F)F)c(F)c2)NC(=O)CN(C)C(=O)[C@@H]1Cc1ccc(C(F)(F)F)cc1 [PP0768] ([NMeL][Nva(3-Et)][Sar][Sar][NPrPhe(4-CF3)][Sar][hPhe(3,5-F2-4-CF3)]P[Ac5c][NMeGly(cPent)][NMeD]-Morpholide; lactam N-11) | C (A compound having a KD ratio of 0.1 or more and less than 3 is denoted as C) | B (a compound having 3 or more and less than 10 is denoted as B) |
| CCCN1C(=O)CN(C)C(=O)CN(C)C(=O)[C@H](C2CC(F)(F)C2)NC(=O)[C@H](CC(C)C)N(C)C(=O)C[C@@H](C(=O)N2CCOCC2)N(C)C(=O)[C@H](C2CCCC2)N(C)C(=O)C2(CCCC2)NC(=O)[C@@H]2CCCN2C(=O)[C@H](CCc2cc(F)c(C(F)(F)F)c(F)c2)NC(=O)CN(C)C(=O)[C@@H]1Cc1ccc(C(F)(F)F)cc1 [PP0769] ([NMeL][X16][Sar][Sar][NPrPhe(4-CF3)][Sar][hPhe(3,5-F2-4-CF3)]P[Ac5c][NMeGly(cPent)][NMeD]-Morpholide; lactam N-11) | C (A compound having a KD ratio of 0.1 or more and less than 3 is denoted as C) | B (a compound having 3 or more and less than 10 is denoted as B) |
| CCCN1C(=O)CN(C)C(=O)[C@@H]2CCN2C(=O)[C@H]([C@@H](C)CC)NC(=O)[C@H](CC(C)C)N(C)C(=O)C[C@@H](C(=O)N2CCOCC2)N(C)C(=O)[C@H](C2CCCC2)N(C)C(=O)C2(CCCC2)NC(=O)[C@@H]2CCCN2C(=O)[C@H](CCc2cc(F)c(C(F)(F)F)c(F)c2)NC(=O)CN(C)C(=O)[C@@H]1Cc1ccc(C(F)(F)F)cc1 [PP0770] ([NMeL]I[Aze][Sar][NPrPhe(4-CF3)][Sar][hPhe(3,5-F2-4-CF3)]P[Ac5c][NMeGly(cPent)][NMeD]-Morpholide; lactam N-11) | B (a compound having 3 or more and less than 10 is denoted as B) | B (a compound having 3 or more and less than 10 is denoted as B) |
| CCCN1C(=O)CN(C)C(=O)[C@@H]2CCN2C(=O)[C@H]([C@@H](C)CC)NC(=O)[C@H](CC(C)C)N(C)C(=O)C[C@@H](C(=O)N2CCOCC2)N(C)C(=O)[C@H](C2CCCC2)N(C)C(=O)[C@](C)(C2CC2)NC(=O)[C@@H]2CCCN2C(=O)[C@H](CCc2cc(F)c(C(F)(F)F)c(F)c2)NC(=O)CN(C)C(=O)[C@@H]1Cc1ccc(C(F)(F)F)cc1 [PP0772] ([NMeL]I[Aze][Sar][NPrPhe(4-CF3)][Sar][hPhe(3,5-F2-4-CF3)]P[X9][NMeGly(cPent)][NMeD]-Morpholide; lactam N-11) | B (a compound having 3 or more and less than 10 is denoted as B) | B (a compound having 3 or more and less than 10 is denoted as B) |
